Measured values from patent US20050113318A1, “Combination of dehydroepiandrosterone or dehydroepiandrosterone-sulfate with a beta-agonist bronchodilator for treatment of asthma or chronic obstructive pulmonary disease” (priority 2003, published 2005).
“And” between values parts separate entries of the source, which are not always exact repeats. Equal entries are not always repeated.

Experiments:
Assay type in all cases: physicochemical
[1] = Solid-state stability with and without lactose (DHEA formed, HPLC)
Source text: These conditions were used to stress the formulation in order to predict its long-term stability results. […] This color change is accompanied by a significant change in the chromatogram as shown in. FIG. 1. The primary degradant is DHEA. […] The materials on accelerated storage become more cohesive with time as evidenced by clumping during sample weighing for chemical analysis. […] This is a considerable disadvantage since lactose is the most commonly used inhalation excipient for dry powder formulations. Continuing with the virtually anhydrous form would mean limiting formulations to neat powder or undertaking more comprehensive safety studies to use a novel excipient.

[2] = Emitted dose studies with dry powder inhalers; conditions: for Emitted Dose: single runs
Experimental: DHEA-S powder was collected in Nephele tubes and assayed by HPLC. Triplicate experiments were performed at each airflow rate for each of the three dry powder inhalers tested (Rotahaler, Diskhaler and IDL's DPI devices). A Nephele tube was fitted at one end with a glass filter (Gelman Sciences, Type A/E, […]), which in turn was connected to the airflow line to collect the emitted dose of the drug from the respective dry powder inhaler being tested. A silicone adapter, with an opening to receive the mouthpiece of the respective dry powder inhaler being tested at the other end of the Nephele tube was secured. A desired airflow, of 30, 60, or 90 L/min, was achieved through the Nephele tube. Each dry powder inhaler's mouthpiece was inserted then into the silicone rubber adapter, and the airflow was continued for about four s after which the tube was removed and an end-cap screwed onto the end of each tube. The end-cap of the tube not containing the filter was removed and 10 ml of an HPLC grade water-acetonitrile solution (1:1) added to the tube, the end-cap reattached, and the tube shaken for 1-2 minutes. The end-cap then was removed from the tube and the solution was transferred to a 10 ml plastic syringe fitted with a filter (Cameo 13N Syringe Filter, Nylon, 0.22 μm). An aliquot of the solution was directly filtered into an HPLC vial for later drug assay via HPLC. […] When the micronized DHEA-S (only vial B used), was weighed for placement into the gelatin capsule or blister, there appeared to be a few aggregates of the micronized powder. […] Table 2 summarizes the results for the Rotahaler experiments at 3 different flow rates, for the Diskhaler experiments at 3 different flow rates, and of the multi-dose experiments at 3 different flow rates.

[3] = HPLC analysis of drug degradation during jet milling; conditions: single-pass and double-pass vs unmilled standard, HPLC peak area
Experimental: Two vials (A; single-pass; 150 mg) and (B double-pass; 600 mg) of the micronized drug were available for determining drug degradation during jet milling micronization. […] The chromatographic peak area for the HPLC assay of the unmilled drug standard solution (10 mg/ml) gave a value of 23,427. […] The chromatographic peak areas for vials A and B were 11,979 and 11,677, respectively.

[4] = Fine particle fraction, single-dose Acu-Breathe inhaler into Andersen impactor; conditions: 30 L/min, IDL data, FIG. 1; result set to zero
Experimental: These blisters are actuated into the Andersen 8-stage cascade impactor at flow rates ranging from 30 to 75 L/min with a glass twin-impinger throat. Stages 1-5 of the Andersen impactor are rinsed together to obtain an estimate of the fine particle fraction. Pooling the drug collected from multiple stages into one assay make the method much more sensitive. […] Using a carrier with a larger particle size typically improves the aerosol properties of micronized drug substances.
Approximately 25 mg of this powder is filled and sealed in foil blisters and aerosolized using the single-dose device at 60 L/min. The aerosol results for this preliminary powder blend are satisfactory for a respiratory drug delivery system. […] This diameter is smaller than the median diameter measured for micronized DHEA-S.dihydrate by laser diffraction. Irregularly shaped particles can behave aerodynamically as smaller particles since their longest dimension tends to align with the air flow field. Therefore, it is common to see a difference between the two methods. Diffraction measurements are a quality control test for the input material while cascade impaction is a quality control test for the finished product.

[5] = Diskhaler (2nd study), 87.8 L/min
[6] = IDL Multi-Dose (2nd study), 87.8 L/min

C[C@]12CC[C@H](OS(=O)(=O)[O-])CC1=CC[C@@H]1[C@@H]2CC[C@]2(C)C(=O)CC[C@@H]12.[Na+] [Anhydrous DHEA-S]
DHEA % formed ([1]; 50° C., 1 week): 9.817%
DHEA % formed ([1]; 50° C., 2 weeks): 14.954%
DHEA % formed ([1]; 50° C., 4 weeks): 20.171%
DHEA % formed ([1]; Control: neat, sealed vial, 25° C., 1 week): 2.694%
DHEA % formed ([1]; Control: neat, sealed vial, 25° C., 2 weeks): 2.370%
DHEA % formed ([1]; Control: neat, sealed vial, 25° C., 4 weeks): 2.666%
DHEA % formed ([1]; Control: neat, sealed vial, 25° C., first time column (head empty, time 0)): 2.774%
Emitted Dose, Average [2, 5]: 59.1%
Emitted Dose [2, 5]: 57.9% and 59.9% and 59.5%
Emitted Dose, Average ([2]; Diskhaler, 30 L/min): 58.6%
Emitted Dose ([2]; Diskhaler, 30 L/min): 53.8% and 53.4% and 68.7%
Emitted Dose, Average ([2]; Diskhaler, 60 L/min): 68.2%
Emitted Dose ([2]; Diskhaler, 60 L/min): 63.4% and 38.9% and 58.0%
Emitted Dose, Average ([2]; Diskhaler, 87.8 L/min): 51.3%
Emitted Dose ([2]; Diskhaler, 87.8 L/min): 65.7% and 41.6% and 46.5%
Emitted Dose, Average [2, 6]: 84.8%
Emitted Dose [2, 6]: 85.7% and 84.6% and 84.0%
Emitted Dose, Average ([2]; IDL Multi-Dose, 30 L/min): 85.4%
Emitted Dose ([2]; IDL Multi-Dose, 30 L/min): 78.9% and 88.2% and 89.2%
Emitted Dose, Average ([2]; IDL Multi-Dose, 60 L/min): 84.0%
Emitted Dose ([2]; IDL Multi-Dose, 60 L/min): 78.8% and 83.7% and 89.6%
Emitted Dose, Average ([2]; IDL Multi-Dose, 87.8 L/min): 72.6%
Emitted Dose ([2]; IDL Multi-Dose, 87.8 L/min): 71.3% and 79.0% and 67.4%
Emitted Dose, Average ([2]; Rotahaler (2nd study), 87.8 L/min): 31.5%
Emitted Dose, Average ([2]; Rotahaler, 30 L/min): 34.7%
Emitted Dose, Average ([2]; Rotahaler, 60 L/min): 57.3%
Emitted Dose ([2]; Rotahaler, 60 L/min): 58.1% and 68.2% and 45.7%
Emitted Dose, Average ([2]; Rotahaler, 87.8 L/min): 69.7%
Emitted Dose ([2]; Rotahaler, 87.8 L/min): 73.2% and 67.1% and 68.7%
degradation of the drug during jet milling micronization [3]: no detectable degradation
fine particle fraction [4]: no detectable mass entered the impactor
